Consider 21 compounds from US7507727B2, “Substituted quinobenzoxazine analogs and methods of using thereof” (Cylene Pharmaceuticals, Inc., priority 2003, dated 2009).

pIC50: −log10 of the molar value.

The subject of the first assay is HeLa cells. Put plainly: MTS cell proliferation and/or cytotoxicity assay. The class given is cell-based, Human. Particulars: Homo sapiens, HeLa, 72 h, concentration at which 50% of antiproliferative cell response is seen; 3 days incubation; read-out: MTS Data Hella. How it is done: Cell culture. Human cervical epithelial cells (HeLa cells) were obtained from American Type Culture Collection (Manassas, Va.). Cells were grown in Eagle's minimum essential medium (MEM, Hyclone, Utah) supplemented with 2 mM Glutamine, 0.1 mM nonessential amino acid, 1 mM Na Pyruvate, 1.5 g/L NaHCO3, 50 mg/L gentamicin, and 10% fetal bovine serum (Hyclone, USA) in a humidified atmosphere of 5% CO2 at 37° C.
MTS assays. Antiproliferative effects of the compounds were tested by the CellTiter 96 AQueous assay (Promega, WI), which is a calorimetric assay for determining the number of viable cells. (See, e.g., Wang, L., et al., Methods Cell Sci (1996) 18:249-255). In one example, cells (4,500 cells/well) were seeded on 96 well flat bottom plates (Corning, N.Y.) in 100 μl of culture medium without any anticancer drug on day 0, and the culture medium was exchanged for that //contained anticancer drugs at various concentrations on day 1. After incubation for 3 days under normal growth conditions (on day 4), the monolayers were washed once in PBS, and the medium was switched to 100 μl of PBS in each of the 96 well plate. After mixing MTS and PMS at the ratio of 20:1, 20 μl of MTS/PMS solution was added to each of the 96 well plate and incubated for 4 hours in a humidified atmosphere of 5% CO2 at 37° C. The absorbance was read at 490 nm using FLUOstar Galaxy 96 well plate reader (BMG Labtechnologies, Germany). μM concentrations (MTS data) reported in Table 1 are concentrations at which 50% of antiproliferative cell response is seen.
Regarding `CN1CCCC1CCNC(=O)c1cn2c3cc4c(=O)c5ccccc5c(=O)c4cc3oc3c(NCCN4CCCC4)c(F)cc(c1=O)c32` (stereo not drawn) [compound 592], the pIC50 is 5.42.
The same measure, in the same setting: under `CCN(CC)CCCC(C)NC(=O)c1cn2c3c(c(N4CCC(c5cnccn5)C4)c(F)cc3c1=O)Oc1cc3ccccc3cc1-2` (stereo not drawn) [compound 27] stands 5.42.
Still for that read-out and setting: under `C[C@@H](O)CNc1c(F)cc2c(=O)c(C(=O)NCCC3CCCN3C)cn3c2c1Oc1cc2ccccc2cc1-3` (stereo partly drawn) [compound 382] stands 5.74; under `CN1CCCC1CCNC(=O)c1cn2c3c(c(N[C@H]4CN5CCC4CC5)c(F)cc3c1=O)Oc1cc3ccccc3cc1-2` (stereo partly drawn) [compound 536], 6.51.
As for `CN1CCN(CCC(=O)N[C@@H]2CCN(c3c(F)cc4c(=O)c(C(=O)NCCC5CCCN5C)cn5c4c3Oc3cc4c(cc3-5)oc3ccccc34)C2)CC1` (stereo partly drawn) [compound 360], the pIC50 is 5.35.
On to `CN1CCN(c2c(F)cc3c(=O)c(C(=O)NCCN4CCCC4)cn4c5cc6c(=O)c7ccccc7c(=O)c6cc5oc2c34)CC1` [compound 340], for which the pIC50 was 5.07.
Turning to `O=C(NCCN1CCOCC1)c1cn2c3c(c(N4CC5CCCNC5C4)c(F)cc3c1=O)Oc1cc3ccccc3cc1-2` (stereo not drawn) [compound 566], the pIC50 is 7.52.
As for `CN1CCN(CCC(=O)N[C@@H]2CCN(c3c(F)cc4c(=O)c(C(=O)NCCN5CCCC5)cn5c4c3Oc3cc4c(cc3-5)oc3ccccc34)C2)CC1` [compound 533], the pIC50 is 6.40.
With `CCN(CC)CCCC(C)NC(=O)c1cn2c3c(c(N4CCC(N)C4)c(F)cc3c1=O)Oc1cc3ccccc3cc1-2` (stereo not drawn) [compound 542], the pIC50 was 6.64.
As to `CN1CCCC1CCNC(=O)c1cn2c3c(c(N4CCC(CCCC5CCNCC5)CC4)c(F)cc3c1=O)Oc1cc3ccccc3cc1-2` (stereo not drawn) [compound 535], the pIC50 was 6.51.
In the case of `CN(C)CCCCNC(=O)c1cn2c3cc4c(=O)c5ccccc5c(=O)c4cc3oc3c(NCCN4CCCC4)c(F)cc(c1=O)c32` [compound 574], the pIC50 is 5.40.
As for `CN1CCCC1CCNC(=O)c1cn2c3c(c(N4CC[C@@H](N)C4)c(F)cc3c1=O)Oc1cc3ccccc3cc1-2` (stereo partly drawn) [compound 564], the pIC50 was 6.54.
Same read-out and setting: under `O=C(CN1CCCCC1)N[C@@H]1CCN(c2c(F)cc3c(=O)c(C(=O)NCCN4CCCC4)cn4c3c2Oc2cc3c(cc2-4)oc2ccccc23)C1` [compound 482] stands 5.47.
For `CN1CCCC1CCNC(=O)c1cn2c3c(c(NCC4(O)CCCCC4)c(F)cc3c1=O)Oc1cc3ccccc3cc1-2` (stereo not drawn) [compound 391], the pIC50 is 6.62.
`CN(C)CCCCNC(=O)c1cn2c3c(c(N4CCC(N)C4)c(F)cc3c1=O)Oc1cc3c(cc1-2)Cc1ccccc1-3` (stereo not drawn) [compound 532]: the pIC50 was 6.36.
For the compound `N[C@H]1CCN(c2c(F)cc3c(=O)c(C(=O)NCCN4CCCC4)cn4c5cc6c(cc5oc2c34)c(=O)c2ccccc26)C1` [compound 583], the pIC50 is 6.60.

The same assay, now with this note: Homo sapiens, HeLa, HeLa cells, MTS; read-out: Hela MTS.
In the case of `CC1(C)CC(NC(=O)c2cn3c4c(c(N5CCC(N)C5)ccc4c2=O)Oc2cc4ccccc4cc2-3)CC(C)(C)N1` (stereo not drawn) [compound 1558], the pIC50 was 6.62.
For the compound `CN1CCCC1CCNC(=O)c1cn2c3c(c(N4CCC(CCCC5CCNCC5)CC4)c(F)cc3c1=O)Oc1cc3ccccc3cc1-2` (stereo not drawn) [compound 1494], the pIC50 is 6.51.
On the same count and under the same terms, as for `CN1CCC[C@H]1CCNC(=O)c1cn2c3c(c(N4CCC(c5cnccn5)C4)c(F)cc3c1=O)Oc1cc3ccccc3cc1-2` (stereo partly drawn) [compound 1742], the figure is 5.48.

The same assay, now with this note: concentration at which 50% of antiproliferative cell response is seen; 3 days incubation; read-out: MTS Data Hella.
In the case of `CN1CCCC1CCNC(=O)c1cn2c3c(c(N4CCC(N)C4)c(F)cc3c1=O)Oc1cc3ccccc3cc1-2` (stereo not drawn) [compound 540], the pIC50 was 6.57.
As to `CN1CCCC1CCNC(=O)c1cn2c3c(c(NC[C@@H]4CCCO4)c(F)cc3c1=O)Oc1cc3ccccc3cc1-2` (stereo partly drawn) [compound 26], the pIC50 is 6.14.

A further assay concerns the target c-Myc template DNA (c-myc quadruplex). The assay can be described thus: Quadruplex binding / stop assay (Taq polymerase arrest, capillary electrophoresis). The following applies: read-out: S DATA; Table 1D, stop assay data.
Turning to `CC1(C)CC(NC(=O)c2cn3c4c(c(N5CCC(N)C5)ccc4c2=O)Oc2cc4ccccc4cc2-3)CC(C)(C)N1` (stereo not drawn) [compound 1558], the pIC50 was 6.43.
With `CN1CCCC1CCNC(=O)c1cn2c3c(c(N4CCC(CCCC5CCNCC5)CC4)c(F)cc3c1=O)Oc1cc3ccccc3cc1-2` (stereo not drawn) [compound 1494], the pIC50 is 6.43.
In the case of `CN1CCC[C@H]1CCNC(=O)c1cn2c3c(c(N4CCC(c5cnccn5)C4)c(F)cc3c1=O)Oc1cc3ccccc3cc1-2` (stereo partly drawn) [compound 1742], the pIC50 was 6.07.

Staying with this assay, now noted: read-out: Stop Data c-Myc μM; concentration at which 50% of the DNA was arrested (arrested:full-length 1:1).
Regarding `CN1CCCC1CCNC(=O)c1cn2c3c(c(N4CCC(N)C4)c(F)cc3c1=O)Oc1cc3ccccc3cc1-2` (stereo not drawn) [compound 540], the IC50 came out at 0.375 µM.
Take `CN1CCCC1CCNC(=O)c1cn2c3c(c(NC[C@@H]4CCCO4)c(F)cc3c1=O)Oc1cc3ccccc3cc1-2` (stereo partly drawn) [compound 26]: the IC50 was 4 µM.
With `CN1CCCC1CCNC(=O)c1cn2c3cc4c(=O)c5ccccc5c(=O)c4cc3oc3c(NCCN4CCCC4)c(F)cc(c1=O)c32` (stereo not drawn) [compound 592], the IC50 amounted to 0.1 µM.
Still for that read-out and setting: under `CCN(CC)CCCC(C)NC(=O)c1cn2c3c(c(N4CCC(c5cnccn5)C4)c(F)cc3c1=O)Oc1cc3ccccc3cc1-2` (stereo not drawn) [compound 27] stands 3 µM; under `C[C@@H](O)CNc1c(F)cc2c(=O)c(C(=O)NCCC3CCCN3C)cn3c2c1Oc1cc2ccccc2cc1-3` (stereo partly drawn) [compound 382], 0.75 µM; under `CN1CCCC1CCNC(=O)c1cn2c3c(c(N[C@H]4CN5CCC4CC5)c(F)cc3c1=O)Oc1cc3ccccc3cc1-2` (stereo partly drawn) [compound 536], 0.375 µM.
In the case of `CN1CCN(CCC(=O)N[C@@H]2CCN(c3c(F)cc4c(=O)c(C(=O)NCCC5CCCN5C)cn5c4c3Oc3cc4c(cc3-5)oc3ccccc34)C2)CC1` (stereo partly drawn) [compound 360], the IC50 amounted to 0.75 µM.
In the case of `CN1CCN(c2c(F)cc3c(=O)c(C(=O)NCCN4CCCC4)cn4c5cc6c(=O)c7ccccc7c(=O)c6cc5oc2c34)CC1` [compound 340], the IC50 was found to be 0.9 µM.
Consider `O=C(NCCN1CCOCC1)c1cn2c3c(c(N4CC5CCCNC5C4)c(F)cc3c1=O)Oc1cc3ccccc3cc1-2` (stereo not drawn) [compound 566], for which the IC50 was 0.25 µM.
In the case of `CN1CCN(CCC(=O)N[C@@H]2CCN(c3c(F)cc4c(=O)c(C(=O)NCCN5CCCC5)cn5c4c3Oc3cc4c(cc3-5)oc3ccccc34)C2)CC1` [compound 533], the IC50 amounted to 0.375 µM.
Still for that read-out and setting: under `CCN(CC)CCCC(C)NC(=O)c1cn2c3c(c(N4CCC(N)C4)c(F)cc3c1=O)Oc1cc3ccccc3cc1-2` (stereo not drawn) [compound 542] stands 0.375 µM; under `CN1CCCC1CCNC(=O)c1cn2c3c(c(N4CCC(CCCC5CCNCC5)CC4)c(F)cc3c1=O)Oc1cc3ccccc3cc1-2` (stereo not drawn) [compound 535], 0.375 µM; under `CN(C)CCCCNC(=O)c1cn2c3cc4c(=O)c5ccccc5c(=O)c4cc3oc3c(NCCN4CCCC4)c(F)cc(c1=O)c32` [compound 574], 0.18 µM.
Consider `CN1CCCC1CCNC(=O)c1cn2c3c(c(N4CC[C@@H](N)C4)c(F)cc3c1=O)Oc1cc3ccccc3cc1-2` (stereo partly drawn) [compound 564], for which the IC50 turned out to be 0.25 µM.
On to `O=C(CN1CCCCC1)N[C@@H]1CCN(c2c(F)cc3c(=O)c(C(=O)NCCN4CCCC4)cn4c3c2Oc2cc3c(cc2-4)oc2ccccc23)C1` [compound 482], for which the IC50 came out at 0.5 µM.
With `CN1CCCC1CCNC(=O)c1cn2c3c(c(NCC4(O)CCCCC4)c(F)cc3c1=O)Oc1cc3ccccc3cc1-2` (stereo not drawn) [compound 391], the IC50 was 0.75 µM.
The same measure, in the same setting: as for `CN(C)CCCCNC(=O)c1cn2c3c(c(N4CCC(N)C4)c(F)cc3c1=O)Oc1cc3c(cc1-2)Cc1ccccc1-3` (stereo not drawn) [compound 532], the figure is 0.375 µM.
Consider `N[C@H]1CCN(c2c(F)cc3c(=O)c(C(=O)NCCN4CCCC4)cn4c5cc6c(cc5oc2c34)c(=O)c2ccccc26)C1` [compound 583], for which the IC50 stood at 0.18 µM.
